Target: T1, GID4 (Uniprot ID: Q81VV7, residues 124-289) (Homo sapiens, UniProt Q8IVV7)
T1 construct: GID4 (Uniprot ID: Q81VV7, residues 124-289)
T1 sequence (Q8IVV7 124-289): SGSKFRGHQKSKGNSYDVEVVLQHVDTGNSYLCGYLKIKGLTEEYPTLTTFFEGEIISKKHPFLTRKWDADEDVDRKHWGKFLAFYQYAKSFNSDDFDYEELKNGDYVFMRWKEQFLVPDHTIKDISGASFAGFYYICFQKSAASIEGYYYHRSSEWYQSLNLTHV
Test: GID4 competitive binding assay (AlphaScreen, GID4/degron peptide PGLW)
Conditions: 24 nM GID4, 48 nM biotinylated degron peptide PGLW, 4° C., read-out: IC50 (Inhibition of GID4/Degron binding by test compounds)
Protocol: GID4 Competitive Binding Assay
GID4 binding affinity of compounds disclosed herein was measured by monitoring the interaction of GID4 with its degron peptide (PGLW) in the presence of the test compounds. A truncated version of GID4 (Uniprot ID: Q81VV7, residues 124-289) with a 6*His at its C-terminus was used in this assay. Tetrapeptide, PGLW, was synthesized and tagged with an additional lysine labeled with biotin at its sidechain.
GID4 competitive binding assays were performed in a 384-well plate at 4° C. in a 20 μL reaction volume. Briefly, 24 nM GID4 (final concentration) proteins were pre-incubated with 48 nM biotinylated degron peptide (final concentration) in an assay buffer containing 20 mM HEPES, pH 7.5, 100 mM NaCl, 1 mM DTT, 0.1% Tween-20, and 0.05% BSA in the presence of the test compound in 2% DMSO (final concentration) at various concentrations for 2 h. 5 ug/ml Streptavidin ALphaScreen donor beads and 5 ug/ml nickel chelate (Ni-NTA) ALphaScreen acceptor beads (PerkinElmer, 6760619C) (final concentrations) were then added to the mixture. After an incubation of 1 h at 4° C., the fluorescent signals were obtained on the EnVision® 2105 Multilabel Plate Reader (PerkinElmer).
Raw ALphaScreen data were converted to a percentage of inhibition (relative to DMSO) using the following equations: […]
For a given test compound concentration X:
Signal (X)=Signal (GID4 & peptide & compound)−Signal (GID4 & buffer & compound)
Percentage of inhibition at concentration X=[1−Signal(X)/Signal (DMSO)]*100% b)
The IC50 values were determined by nonlinear regression of plots of [inhibitor] vs. percentage of inhibition with variable slope.
Table 3 summarizes the inhibition of binding between GID4 and degron peptide with compounds of the present disclosure. Compounds were ranked into bins as follows for IC50: A indicates <500 nM; B indicates 500 nM-5000 nM; C indicates >5000 nM.

Question: How did the IC50 turn out when Nc1nccc2ccc(-c3cc(C(=O)N4CCCC4)cc4c3CCCC4)cc12 [Compound 342, (4-(1-aminoisoquinolin-7-yl)-5,6,7,8-tetrahydronaphthalen-2-yl)(pyrrolidin-1-yl)methanone] was run?
Answer: Its IC50 is 0.5 to 5 µM.

Question: Which IC50 does the source give for CNCCCNC(=O)c1ccc(-c2cc(O)c3ncccc3c2)cc1 [Compound 303, 4-(8-hydroxyquinolin-6-yl)-N-(3-(methylamino)propyl)benzamide] here?
Answer: Its IC50 is under 0.5 µM.

Question: Which IC50 does the source give for Nc1nccc2ccc(-c3ccc4[nH]nc(C(=O)N5CCC(O)CC5)c4c3)cc12 [Compound 336, (5-(1-aminoisoquinolin-7-yl)-1H-indazol-3-yl)(4-hydroxypiperidin-1-yl)methanone] here?
Answer: Its IC50 is under 0.5 µM.

Question: Nc1cc(N2CCCC(O)(c3ccccc3Br)C2)nc(N)n1 (centres unmarked) [Compound 234, 3-(2-bromophenyl)-1-(2,6-diaminopyrimidin-4-yl)piperidin-3-ol] was tested. Which IC50 did it give?
Answer: The IC50 was 0.5 to 5 µM.

Question: Nc1cc(N2CCCC(n3cnc4ccccc43)C2)nc(N)n1 (centres unmarked) [Compound 260, 6-(3-(1H-benzo[d]imidazol-1-yl)piperidin-1-yl)pyrimidine-2,4-diamine] was tested. Which IC50 did it give?
Answer: The IC50 was over 5 µM.

Question: How did the IC50 turn out when CC(C)c1cc(N2CCOC(c3ccccc3Br)C2)nc(N)n1 (single isomer, unassigned) [Compound 159, (S/R)-4-(2-(2-bromophenyl)morpholino)-6-isopropylpyrimidin-2-amine] was run?
Answer: The IC50 was 0.5 to 5 µM.

Question: Which IC50 does the source give for Nc1cc(N2CCNC(c3cnc4ccccn34)C2)nc(N)n1 (racemic) [Compound 120, (R/S)-6-(3-(imidazo[1,2-a]pyridin-3-yl)piperazin-1-yl)pyrimidine-2,4-diamine] here?
Answer: Its IC50 is 0.5 to 5 µM.

Question: For CNc1cc(N2CCN(C)C(c3ccccc3)C2)nc(N)n1 (centres unmarked) [Compound 110, N4-methyl-6-(4-methyl-3-phenylpiperazin-1-yl)pyrimidine-2,4-diamine], which IC50 is on record?
Answer: Its IC50 is 0.5 to 5 µM.

Question: How did the IC50 turn out when Nc1nc(N2CCNC(c3ccccc3Br)C2)c2[nH]ccc2n1 (single isomer, unassigned) [Compound 42, (R/S)-4-(3-(2-bromophenyl)piperazin-1-yl)-5H-pyrrolo[3,2-d]pyrimidin-2-amine] was run?
Answer: The IC50 was over 5 µM.

Question: Which IC50 does the source give for CC(C)c1cc(N2CCNC(c3cc(F)c(F)cc3Br)C2)nc(N)n1 (centres unmarked) [Compound 170, 4-(3-(2-bromo-4,5-difluorophenyl)piperazin-1-yl)-6-isopropylpyrimidin-2-amine] here?
Answer: The IC50 was 0.5 to 5 µM.

Question: With CN(C)CCCNC(=O)c1ccc(-c2cc(O)c3ncccc3c2)cn1 [Compound 295, N-(3-(dimethylamino)propyl)-5-(8-hydroxyquinolin-6-yl)picolinamide] as the compound, how does the IC50 read?
Answer: Its IC50 is under 0.5 µM.

Question: CN1CCN(c2ccc(Br)c(C3CN(c4cc(N)nc(N)n4)CCN3)c2)CC1 (single isomer, unassigned) [Compound 50, R or S 6-(3-(2-bromo-5-(4-methylpiperazin-1-yl)phenyl)piperazin-1-yl)pyrimidine-2,4-diamine] was tested. Which IC50 did it give?
Answer: Its IC50 is under 0.5 µM.

Question: Nc1nc(N2CCCC(c3ccn[nH]3)C2)c2cnccc2n1 (centres unmarked) [Compound 218, 4-(3-(1H-pyrazol-5-yl)piperidin-1-yl)pyrido[4,3-d]pyrimidin-2-amine] was tested. Which IC50 did it give?
Answer: Its IC50 is over 5 µM.

Question: How did the IC50 turn out when CNc1cc(N2CCCC(c3cnc4ccccn34)C2)nc(C(C)C)n1 (single isomer, unassigned) [Compound 126, (R/S)-6-(3-(imidazo[1,2-a]pyridin-3-yl)piperidin-1-yl)-2-isopropyl-N-methylpyrimidin-4-amine] was run?
Answer: The IC50 was under 0.5 µM.

Question: How did the IC50 turn out when CN(C)CCCNC(=O)N1CC=C(c2cc(O)c3ncccc3c2)CC1 [Compound 306, N-(3-(dimethylamino)propyl)-4-(8-hydroxyquinolin-6-yl)-3,6-dihydropyridine-1(2H)-carboxamide] was run?
Answer: The IC50 was 0.5 to 5 µM.

Question: How did the IC50 turn out when CN(C)CCCNC(=O)c1ncc(-c2cc(O)c3ncccc3c2)[nH]1 [Compound 275, N-(3-(dimethylamino)propyl)-5-(8-hydroxyquinolin-6-yl)-1H-imidazole-2-carboxamide] was run?
Answer: Its IC50 is under 0.5 µM.

Question: With Cc1cc(-c2cc(O)c3ncccc3c2)ccc1C(=O)NCCCN(C)C [Compound 311, N-(3-(dimethylamino)propyl)-4-(8-hydroxyquinolin-6-yl)-2-methylbenzamide] as the compound, how does the IC50 read?
Answer: The IC50 was 0.5 to 5 µM.

Question: How did the IC50 turn out when CC(C)c1cc(N2CCCC(c3cnc4ccccn34)C2)nc(NCCO)n1 (centres unmarked) [Compound 127, 2-((4-(3-(imidazo[1,2-a]pyridin-3-yl)piperidin-1-yl)-6-isopropylpyrimidin-2-yl)amino)ethan-1-ol] was run?
Answer: The IC50 was over 5 µM.

Question: Which IC50 does the source give for Nc1nc(C2CC2)cc(N2CCCC(c3ccn[nH]3)C2)n1 (centres unmarked) [Compound 211, 4-(3-(1H-pyrazol-5-yl)piperidin-1-yl)-6-cyclopropylpyrimidin-2-amine] here?
Answer: Its IC50 is over 5 µM.

Question: Which IC50 does the source give for CN(C)CCCNC(=O)c1ncc(-c2cc(O)c3ncccc3c2)cn1 [Compound 271, N-(3-(dimethylamino)propyl)-5-(8-hydroxyquinolin-6-yl)pyrimidine-2-carboxamide] here?
Answer: Its IC50 is under 0.5 µM.

Question: CNc1cc(N2CCN[C@H](c3ccccc3Br)C2)nc(NC)n1 (stereo in doubt) [Compound 131, (R/S)-6-(3-(2-bromophenyl)piperazin-1-yl)-N2,N4-dimethylpyrimidine-2,4-diamine] was tested. Which IC50 did it give?
Answer: The IC50 was under 0.5 µM.

Question: Nc1nc(N2CCCC(c3ccn[nH]3)C2)c2ccccc2n1 (centres unmarked) [Compound 213, 4-(3-(1H-pyrazol-5-yl)piperidin-1-yl)quinazolin-2-amine] was tested. Which IC50 did it give?
Answer: The IC50 was over 5 µM.

Question: How did the IC50 turn out when CN(C)CCCNC(=O)c1csc(-c2cc(O)c3ncccc3c2)c1 [Compound 281, N-(3-(dimethylamino)propyl)-5-(8-hydroxyquinolin-6-yl)thiophene-3-carboxamide] was run?
Answer: The IC50 was under 0.5 µM.

Question: Which IC50 does the source give for CC(C)c1cc(N2CCNC(c3cnc4ccccn34)C2)c2cc[nH]c2n1 (single isomer, unassigned) [Compound 372, (S/R)-3-(4-(6-isopropyl-1H-pyrrolo[2,3-b]pyridin-4-yl)piperazin-2-yl)imidazo[1,2-a]pyridine] here?
Answer: The IC50 was under 0.5 µM.

Question: For O=C(c1cccc(-c2cc(O)c3ncccc3c2)c1)N1CCCC1 [Compound 293, (3-(8-hydroxyquinolin-6-yl)phenyl)(pyrrolidin-1-yl)methanone], which IC50 is on record?
Answer: The IC50 was 0.5 to 5 µM.

Question: With Nc1nc(C2CC2)cc(N2CCCC(c3cnc4ccccn34)C2)n1 (centres unmarked) [Compound 139, 4-cyclopropyl-6-(3-(imidazo[1,2-a]pyridin-3-yl)piperidin-1-yl)pyrimidin-2-amine] as the compound, how does the IC50 read?
Answer: Its IC50 is under 0.5 µM.

Question: Which IC50 does the source give for CNc1cc(N2CCCC(n3nnc4ccccc43)C2)nc(N)n1 (centres unmarked) [Compound 93, 6-(3-(1H-benzo[d][1,2,3]triazol-1-yl)piperidin-1-yl)-N4-methylpyrimidine-2,4-diamine] here?
Answer: The IC50 was over 5 µM.

Question: For CC(C)c1cc(N2CCn3cncc3C2)nc(N)n1 [Compound 182, 4-(5,6-dihydroimidazo[1,5-a]pyrazin-7(8H)-yl)-6-isopropylpyrimidin-2-amine], which IC50 is on record?
Answer: The IC50 was over 5 µM.

Question: Which IC50 does the source give for Nc1nc(NC2CC2)cc(N2CCN(CCO)C(c3ccccc3Br)C2)n1 (single isomer, unassigned) [Compound 44, (R/S)-2-(4-(2-amino-6-(cyclopropylamino)pyrimidin-4-yl)-2-(2-bromophenyl)piperazin-1-yl)ethan-1-ol] here?
Answer: Its IC50 is 0.5 to 5 µM.

Question: Which IC50 does the source give for CN1CCC(CNC(=O)c2n[nH]c3ccc(-c4ccc5ccnc(N)c5c4)cc23)CC1 [Compound 337, 5-(1-aminoisoquinolin-7-yl)-N-((1-methylpiperidin-4-yl)methyl)-1H-indazole-3-carboxamide] here?
Answer: The IC50 was under 0.5 µM.

Question: Which IC50 does the source give for Nc1cc(N2CCN(CCO)[C@@H](c3ccccc3Br)C2)nc(NC2CC2)n1 (stereo in doubt) [Compound 69, (S/R)-2-(4-(6-amino-2-(cyclopropylamino)pyrimidin-4-yl)-2-(2-bromophenyl)piperazin-1-yl)ethan-1-ol] here?
Answer: The IC50 was over 5 µM.

Question: CN(C)CCCNC(=O)c1c[nH]c(-c2cc(O)c3ncccc3c2)n1 [Compound 277, N-(3-(dimethylamino)propyl)-2-(8-hydroxyquinolin-6-yl)-1H-imidazole-4-carboxamide] was tested. Which IC50 did it give?
Answer: The IC50 was under 0.5 µM.

Question: With Nc1nc2c(c(N3CCNC(c4nnc[nH]4)C3)n1)CSC2 (centres unmarked) [Compound 185, 4-(3-(4H-1,2,4-triazol-3-yl)piperazin-1-yl)-5,7-dihydrothieno[3,4-d]pyrimidin-2-amine] as the compound, how does the IC50 read?
Answer: Its IC50 is 0.5 to 5 µM.

Question: With CC(C)c1cc(N2CCCC(c3ncn4ccccc34)C2)nc(N)n1 (centres unmarked) [Compound 235, 4-(3-(imidazo[1,5-a]pyridin-1-yl)piperidin-1-yl)-6-isopropylpyrimidin-2-amine] as the compound, how does the IC50 read?
Answer: The IC50 was under 0.5 µM.

Question: How did the IC50 turn out when CN1CCN(c2cc(NCC3CC3)nc(N)n2)C[C@@H]1c1ccccc1Br (racemic) [Compound 100, (S/R)-6-(3-(2-bromophenyl)-4-methylpiperazin-1-yl)-N4-(cyclopropylmethyl)pyrimidine-2,4-diamine] was run?
Answer: The IC50 was over 5 µM.
